| Structure (SMILES) | melting point [°C] |
| --- | --- |
| COCCOc1cc(NS(=O)(=O)c2ccccn2)c2[nH]c(C(=O)O)cc2c1 | 230 to 232 |
| Cc1oc(C=Cc2ccc(Cl)cc2)nc1CC#N | 124 to 125 |
| COc1ccc(CCN(C)C)c2nn[nH]c12 | 176 to 180 |
| COc1ccc2c(c1)c(SC(C)(C)C)c(CC(C)(C)C(=O)O)n2Cc1ccc(Cl)cc1 | 190 to 191 |
| CN1c2ccc(CC(=O)O)cc2CCC1c1ccccc1 (stereo unspecified) | 110 to 111 |
| COc1cccc(Oc2c(NS(=O)(=O)c3ccc(C(C)(C)C)cc3)ncnc2OCCCO)c1 | 113 to 114 |
| O=C(NC1Cc2ccccc2C1)C(F)(F)F | 160 |
| CC(C)(C)OC(=O)Nc1ccc(-c2cccc3ccccc23)cc1[N+](=O)[O-] | 60 to 66 |
| Cc1ccc(C(Cl)=NOS(=O)(=O)CCCCl)cc1 | 56 to 58 |
| O=C(Nc1cccc(C(F)(F)F)c1)c1cccc2cc(OS(=O)(=O)C(F)(F)F)ccc12 | 177 to 178 |
| CSc1nc(SC)c(NC(=O)CCCCCSc2nc3ccccc3o2)c(SC)n1 | 149 to 153 |
| COc1ccc(Cn2c(=O)c(C(=O)NC3CCCCC3)c(O)c3cc(F)cnc32)cc1 | 176 |
| O=C1c2ccc(O)cc2OCN1CCO | 182 to 184 |
| Cc1cccc(C)c1NCC(N)=O | 89 to 92 |
| CC(=O)Nc1c(OC(C)=O)cc2c(c1[N+](=O)[O-])CCC2 | 168 to 170 |
| Cc1coc2ccc(C#N)cc12 | 73 |
| COc1cc(N)c(Cl)cc1C(=O)NCC1CCN(CCCCCC(=O)c2ccccc2)CC1 | 138 to 141 |

| Structure (SMILES) | melting point [°C] |
| --- | --- |
| CNc1nc(C)c(-c2ccnc(Nc3ccc(N4CCNCC4)cc3)n2)s1 | 253 to 255 |
| Brc1cccc(Sc2ncccc2OCCCc2cccnc2)c1 | 75 to 76 |
| N#Cc1ccc(-n2c(=O)oc3ccc(-c4ccc(F)cc4F)cc3c2=O)cc1 | 203 to 204 |
| O=CNc1ccccc1O | 129 |
| COc1ccc2c(c1)C=C(C(=O)O)CCO2 | 176 to 177 |
| C=CCn1c(=S)n(C2OC(CO)C(O)C2O)c2nc(N)[nH]c(=O)c21 (stereo unspecified) | > 230 |
| CCOC(=O)C1=C(C)NC(C)=C(C(=O)OCC)C1c1csc2ccc(Br)cc12 | 68 to 70 |
| CC(C)(C)c1cc(CCc2n[nH]c(=S)o2)cc(C(C)(C)C)c1O | 164 to 166 |
| Cc1cc(Oc2ncc(C(F)(F)F)cc2Cl)nn1C(=O)NCC(C)C | 45 to 47 |
| COC(=O)c1ccc(OCC2CC(=O)N(c3ccc(OCCO)cc3)C2)cc1 (stereo unspecified) | 129 to 131 |
| COc1cc(CNC(C)=O)c(Cl)cc1O | > 300 |
| C[C@H]1CCCC(C)(C)[C@@H]1[C@H](O)c1ccc(Cl)c(Cl)c1 | 94.2 to 96.2 |
| O=C(O)CCCc1ccc(N2CCOCC2)cc1 | 167 to 168 |
| O=C(O)CCSC1c2cc(OCc3ccc4ccc(Cl)cc4n3)ccc2OCc2c(-c3nnn[nH]3)cccc21 (stereo unspecified) | 122 to 125 |
| Cc1cccc(C)c1CNc1cc(C(=O)N(C)C)cc2c1nc(C)n2COCc1ccccc1 | 55 to 56 |
| CCn1cnc(C(N)=O)c1NC(=S)NC(=O)c1ccccc1 | 178 to 180 |
| CSc1cc(C)nc(SC)c1NC(=O)CN1CCN(CCSc2nc3ccccc3s2)CC1 | 136 to 139 |

Second part, the molecule after the results:

| melting point [°C] | Structure (SMILES) |
| --- | --- |
| 247 to 251 | CCOCCn1cc2c(C3C(=O)Nc4ccc(Br)cc43)nc(NCCN(C)C)nc2n1 (stereo unspecified) |
| 97 to 98 | COC(=O)c1ccc(C#Cc2cncc(C3CCCN3C)c2)cc1 (stereo unspecified) |
| 154 to 157 | CCOC(=O)N1CCC(=C2c3ccc(Cl)cc3SCc3cccnc32)CC1 |
| 214 to 215 | O=C(O)c1ccc(OCC2CN(c3ccccc3)C(=S)O2)cc1 (stereo unspecified) |
| 235 to 236 | Cc1cn2c(=O)c3c(Cl)cccc3nc2s1 |
| 94 to 95 | CCCC(=O)c1nc(CCC)[nH]c1C |
| 105 to 107 | COC(=O)CN(C)C(=O)c1ccc(OC)c2cc(OC)ccc12 |
| 131 to 135 | Cc1ccc(CSC[C@H](NC(=O)C(CS)Cc2ccc(-c3ccccc3)cc2)C(=O)O)cc1 (stereo partly specified) |
| 67 to 69 | CCOC(=S)c1ccc2scc(C)c2c1 |
| 106 to 108 | CCOc1cc2c(cc1OCC)C(C(S)(C#N)CCC(=O)O)=NCC2 (stereo unspecified) |
| 202 to 204 | CCc1cccc2[nH]c(=O)oc(=O)c12 |
| 38.5 to 40.5 | CC(C)(CO)NC(=O)c1ccccc1-c1ccccc1 |
| 97 to 99 | O=[N+]([O-])c1cccc(O)c1CO |
| 91 to 92 | CCOC(=O)Cc1nsc2ccc([N+](=O)[O-])cc12 |
| > 250 | N#Cc1cc(C[C@H](N)C(=O)O)ccc1O |
| 177 to 178 | O=C(O)COc1cc(Cl)ccc1C(=O)NCc1ccc(Cl)c(Cl)c1 |
| 62 | CC(=O)C1CCC(=O)N1C(C)=O (stereo unspecified) |
| 156 to 158 | CC(C)(C)c1nc(-c2ccccc2)[nH]c1C(C)(C)C |
| 196 to 199 | CCCCCC(C)C(C)c1cc(O)cc(OC(NC(C)=O)c2ccccc2)c1 (stereo unspecified) |
| 172 to 173 | CCOCc1nc2c(N)nc(C)c(C)c2n1C1(OC)CCCCC1 |
| 167 to 168 | COc1ccc(C)cc1NC(=O)Nc1ccc(N2CCN(C(=O)OC(C)(C)C)C(C)C2)cc1 (stereo unspecified) |

| melting point [°C] | Structure (SMILES) |
| --- | --- |
| 170 to 171 | Cc1cc(N2CCC(=O)CC2)c2cc(C)c(-c3ccc(Cl)cc3Cl)n2n1 |
| 188 to 192 | CC[C@@]1(CC(=O)N[C@@H](C)c2ccccc2)CCCN2CCc3c([nH]c4ccccc34)[C@@H]21 |
| 279 to 280 | COc1cc2c(cc1[N+](=O)[O-])-c1c(-c3cccs3)c3c(n1CC2)C(=O)N(C(C)(C)C)CCC3 |
| 237 to 244 | CCCc1ccc2nc(C#N)c(S(N)(=O)=O)n2n1 |
| 159 to 160 | COc1ccc2c(c1)C(c1ccc(OCCN(C)C)cc1)c1c-2ccc2ccccc12 (stereo unspecified) |
| 80 to 82 | CN(C)C=C(C#N)C(=O)c1cccc(Oc2ccccc2)c1 |
| 88.5 to 90.5 | CCN(C)C(=O)N(C)C(=O)Nc1ccccc1 |
| 194 to 196 | CN1Cc2ccccc2C(=O)c2cc(CC(=O)O)ccc21 |
| 74 to 75 | COc1c(C)cc(C)cc1CCC(=O)O |
| 191 | O=C1CC(c2ccc(-c3ccc(OCc4ccc(Br)cc4)cc3)cc2)Cc2ccccc21 (stereo unspecified) |
| 133 to 134 | N#CN=C(Nc1ccc(Cl)nc1)Oc1ccccc1 |
| 123 to 128 | Cc1oncc1C(=O)Nc1ccc(N)cc1 |
| 208 to 209 | Cc1cc(C(=O)O)ncc1C(c1cc(F)ccc1F)S(=O)(=O)c1ccc(Cl)cc1 (stereo unspecified) |
| 226 to 227 | CCS(=O)(=O)Nc1n[nH]c2nc(Oc3ccc(F)cc3F)ncc12 |
| 66 to 67 | Cc1cc(CCCCCCCc2ccc(C3=NCCO3)cc2)on1 |
| 168 to 170 | NC(=O)C1=CCCc2cc(Sc3cccc(F)c3)ccc21 |
| 119 to 122 | COc1ccc(C(=O)c2cccc(S(N)(=O)=O)c2)cc1 |
| > 300 | CC(=O)Nc1cccc2c1C(=O)c1c-2n[nH]c1-c1ccc(O)cc1 |
| 108 | CC(C)(C)c1ncc(O)c(Cl)n1 |
| 228 to 229 | NCc1cccc(-c2csc(N=C(N)N)n2)n1 |
| 240 to 242 | O=c1[nH]c2ccc(F)cc2c(=O)n1CCS |

Reference: a melting point compilation (Tetko et al.; mined from patent text by program, amines drawn as free bases though some values may be those of a salt)
